Test [1] concerns S87A-IL-1α protein. As to the kind of experiment: S87A-IL-1α protein stability in stably transfected 293 cells (western blot). It counts as cell-based, human. To be noted: 293 cells stably expressing S87A-IL-1α, MG132 5 hours vs DMSO. How it is done: FIGS. 1A-1C depict in accordance with various embodiments of the invention, that serine phosphorylation is required for IL-1α protein stability. FIG. 1A) Relative expression of IL-1α mRNA by qPCR. FIG. 1B) Western Blot of IL-1α protein level in cell lysates. FIG. 1C) Western blot of IL-1α in cell lysates of cells treated with DMSO or MG132 for 5 hours.
Human IL-1α is phosphorylated at the serine 87 (S87) residue (mouse equivalent to S90) of the N-terminal pro-piece by protein kinase A (PKA). […] IL-1α phosphorylation is required for its membrane localization. A mutant IL-1α plasmid cDNA was made for studying the role of IL-1α subcellular localization: the Serine at 87 was exchanged with Alanine (S87A) using the QuikChange Site-Directed Mutagenesis kit, Cat #200518 and human pCMV-IL-1α-flag plasmid DNA (Sino Biological Inc. Cat #HG10128-M-F). Primers were designed by the QuikChange Primer Design software program.
Wild-type (WT)-IL-1α or mutant S87A-IL-1α plasmid was transfected into 293 cells and stable expressing cells lines were made. These cells express similar levels of IL-1α mRNA (FIG. 1A). IL-1α protein was detected only in WT-IL-1α transfected cells but not mutant S87A-IL-1α transfected cells (FIG. 1B). […] Based on this finding, a pseudosubstrate peptide was made to inhibit IL-1α phosphorylation, which may provide a more convenient way to control IL-1α during inflammation. […]

Test [2] can be described thus: Membrane lipid strip binding (ECL detection). To be noted: membrane lipid strips incubated with peptide (5 μg) or recombinant protein. How it is done: FIGS. 12A-12F depict in accordance with various embodiments of the invention, that the iIL-1α-peptide reduces cutaneous melanoma tumor. FIG. 12A-12B) Membrane lipid strips were incubated with (5 μg) SPDIA or Control peptide and detected by ECL. FIG. 12C) B16 or YUMM1.7 cells were treated with SPDIA or Control peptide (40 μg/ml) for 5 h, and pAkt1 and Akt1 in cell lysate were determined by WB. FIG. 12D) Experimental scheme. FIG. 12E) tumor pictures. FIG. 12F) Quantification of tumor volume, ** p<0.05. and Quantification of tumor mass, ** p<0.05. n=5.
FIGS. 14A-14C show intracellular IL-1α reduced Akt1 activation. FIG. 14A) pAkt1 and total Akt1 in cell lysate was determined by WB. FIG. 14B) Membrane lipid strip was incubated with recombinant human proIL-1α. IL-1α was detected by ECL system. FIG. 14C) PIP3 and Na, K-ATPase levels in plasma membrane fraction were determined by WB.
Intracellular IL-1α reduced Akt1 activation.
IL-1α pro-piece reduces melanoma tumor progression. To investigate the suppressive effect of intracellular proIL-1α in melanoma tumor progression, we designed a short Peptide Derived from IL-1A pro-piece (SPDIA) “GKVLKKRRLSL” (SEQ ID NO:1).

In test [3] the test system is IL-1α protein. The test can be described thus: IL-1α protein level in LPS-stimulated peritoneal macrophages (western blot). It counts as cell-based. The settings on record: peritoneal macrophages pretreated with peptide 1 hour, stimulated with LPS (3 hours), compared to LPS alone. Here is the method:
FIG. 2 depicts in accordance with various embodiments of the invention, that TAT-IL-1α peptide diminished IL-1α protein level. Peritoneal macrophages were pretreated with TAT-IL-1α or TAT-control peptides for 1 hour and stimulated with LPS (3 hours). The IL-1α protein level in cell lysate was detected by Western Blot. GAPDH was measured as a loading control.
The inventors investigated whether TAT-IL-1α peptide triggers IL-1α protein degradation by reducing its serine phosphorylation. Peritoneal macrophages were pretreated with TAT-IL-1α or TAT-Control peptides for 1 hour, stimulated with LPS, and the IL-1α protein level in whole cell lysate was detected by western blot (WB) (FIG. 2). The IL-1α protein level was decreased in TAT-IL-1α treated cells.

For test [4], the system named is hexokinase 2 (HK-2). As to the kind of experiment: HK-2 mitochondrial/cytosolic fraction level in melanoma cells by western blot. To be noted: B16 or Yumm 1.7 cells, 40 μg/ml, 5 hours, vs TAT-Control. In kind it is cell-based, mouse. (In general: Immunoblotting shows a protein as a band on a membrane.)
Description: B16 cells isolated from tumors from WT mice were treated with iIL-1α-mimic peptide (iIL-1α-peptide) (40 μg/ml) or PBS for 5 hours. […] FIG. 10B) HK-2 and pAkt1 in cytosolic and mitochondrial fraction were determined by WB. COX-IV and GAPDH was used as a loading controls.
B16 cells were isolated from WT mice and cultured in-vitro. The cells were treated with the iIL-1α-mimic peptide (iIL-1α peptide) or PBS for 5 hours (FIG. 10).
B16 or Yumm1.7 melanoma cells were treated with PBS or iIL-1α-peptide (40 μg/ml) for 5 hours, and HK-2 levels and Akt1 activation in the mitochondrial and cytosolic fraction were determined by western blot.
The target of test [5] is T1, Akt1 (Mus musculus, UniProt P31750).
T1 construct: endogenous in cells
T1 sequence (P31750 whole entry): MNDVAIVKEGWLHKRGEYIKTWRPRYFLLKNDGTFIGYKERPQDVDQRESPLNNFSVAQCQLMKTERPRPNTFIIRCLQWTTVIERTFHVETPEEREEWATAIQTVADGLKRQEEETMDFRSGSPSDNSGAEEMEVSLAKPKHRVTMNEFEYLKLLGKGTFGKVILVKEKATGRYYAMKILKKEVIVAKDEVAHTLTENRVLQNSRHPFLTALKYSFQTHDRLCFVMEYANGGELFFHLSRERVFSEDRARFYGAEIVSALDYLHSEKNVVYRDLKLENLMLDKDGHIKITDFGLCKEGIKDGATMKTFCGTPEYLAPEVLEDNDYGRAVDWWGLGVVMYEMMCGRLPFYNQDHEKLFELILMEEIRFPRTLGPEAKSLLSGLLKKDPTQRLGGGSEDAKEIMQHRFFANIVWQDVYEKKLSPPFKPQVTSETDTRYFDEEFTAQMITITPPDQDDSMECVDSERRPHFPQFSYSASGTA
The test can be described thus: Akt1 activation (pAkt1) in melanoma cells by western blot. The settings on record: B16 or Yumm 1.7 murine melanoma cells, TAT-IL-1α 40 μg/ml, 5 hours, vs TAT-Control peptide. It counts as cell-based. How it is done: FIG. 3 depicts in accordance with various embodiments of the invention, that TAT-IL-1α peptide diminished Akt1 activation and increased HK-2 mitochondrial dissociation. B16 or Yumm 1.7 murine melanoma cells were treated with TAT-IL-1α (40 μg/ml) or TAT-Control peptide for 5 hours. HK-2 level and pAkt1 activation in the cytosolic and mitochondrial fraction were detected by Western Blot. GAPDH was measured as a loading control.
FIGS. 10A-10C depict in accordance with various embodiments of the invention, the iIL-1α-peptide reduces Akt1 activation and glycolysis in melanoma cells. […] FIG. 10B) HK-2 and pAkt1 in cytosolic and mitochondrial fraction were determined by WB. […] FIG. 10C) Extracellular acidification rate (ECAR) was measured by Seahorse and compared over time in PBS and iIL-1α-peptide treated mice.
FIGS. 12A-12F depict in accordance with various embodiments of the invention, that the iIL-1α-peptide reduces cutaneous melanoma tumor. FIG. 12A-12B) Membrane lipid strips were incubated with (5 μg) SPDIA or Control peptide and detected by ECL. FIG. 12C) B16 or YUMM1.7 cells were treated with SPDIA or Control peptide (40 μg/ml) for 5 h, and pAkt1 and Akt1 in cell lysate were determined by WB. […] FIG. 12F) Quantification of tumor volume, ** p<0.05. and Quantification of tumor mass, ** p<0.05. n=5. […]

The test system of test [6] is B16 melanoma cells. As to the kind of experiment: B16 melanoma lung metastasis/colonization model (tail vein injection). In kind it is in vivo, mouse. To be noted: vs TAT-Control peptide; for melanoma (lung) metastasis: B16 cells i.v. in female WT mice, peptide i.v. five days later, lungs harvested five days post treatment. An excerpt: FIGS. 4A-4C depict in accordance with various embodiments of the invention, that TAT-IL-1α peptide reduced lung metastasis. FIG. 4A) Experimental Schematic (top), metastatic lungs (bottom images). FIG. 4B) Quantification of tumor number in TAT-Control and TAT-IL-1α. FIG. 4C) Melanin content of the metastatic lungs in TAT-Control and TAT-IL-1α.
FIGS. 11A-11C depict in accordance with various embodiments of the invention, that the iIL-1α-peptide reduces melanoma colonization in the lung. FIG. 11A) Experimental scheme and representative lung pictures. FIG. 11B) Quantification of tumor number, **p<0.01. FIG. 11C) Quantification of melanin content, *p<0.05. n=4.
The B16 (also referred herein as “B16F10”) mouse melanoma metastasis model is widely accepted, as B16 cells injected via tail vein reliably colonize the lungs, with easily identifiable tumors after 7-14 days. While the use of a genetic melanoma model may be ideal, it requires the use of immunodeficient mice or the complicated and expensive humanized mice. While the B16 model may have its known caveats, it has repeatedly given very useful novel mechanistic clues that can be further tested in more relevant models, such as genetically engineered mice. In addition to the B16 model, a mouse melanoma cell line with human genetic drivers that are more relevant to human melanoma formation and progression were also used. To this effect, a non-immunogenic cell line (YUMM1.7) was used. In the YUMM1.7 cells, nearly 50% of human melanomas harbor a gain of function in the Braf^V600E Cdkn2a−/− Pten−/− mutations and they form reliable lung tumors following tail vein injection (5×10^5, in 3 weeks). Other common mutations in human melanoma include CDKN2A (familial melanoma gene), inactivation of tumor suppressors including INK4A, ARF, p53, and PTEN, as well as mutations in proto-oncogenes such as H-RAS, N-RAS, and K-RAS.
The peptides were subsequently tested in vivo. B16 melanoma cells were intravenously (i.v.) injected in the tail vein of female WT mice. Five days later, TAT-IL-1α or TAT-Control peptide was injected in the tail vein (i.v.). Five days post treatment, lungs were harvested and examined for metastasis. […] The tumor number and melanin content were diminished in the TAT-IL-1α treatment group compared to TAT-Control peptide treatment. (FIGS. 4B and 4C).
The mouse models used were C57Bl/6 WT or Il1α−/− mice injected with B16 cells (2×10^5 tail vein), (3×10^5 subcutaneous) or C57Bl/6 WT mice injected with YUMM1.7 cells (5×10^5 subcutaneous). The IL-1α, pAkt1 and HK-2 levels were determined by WB. The glycolytic rate in B16 cells was measured by Seahorse.
The iIL-1α-peptide reduces tumor burden in vivo. The protective role of the iIL-1α-peptide against melanoma colonization was investigated. […] The mice were analyzed 5 days later.

[7] abbreviates: B16 i.v. model, peptide i.v. day 5.

These results are taken from patent publication US12168037B2, “Intracellular IL-1 alpha peptide methods and compositions” (CEDARS-SINAI MEDICAL CENTER, priority 2018, dated 2024).

Peptide text beside a SMILES is read from it. * marks the point of attachment. Cbz = O=C(OCc1ccccc1)*

On to `CC(C)C[C@@H](C=O)NC(=O)[C@H](CC(C)C)NC(=O)[C@H](CC(C)C)NC(=O)OCc1ccccc1` [MG132] (Cbz-Leu-Leu-Leu-aldehyde), for which, in test [1], the “S87A-IL-1α protein in cell lysate” value was “clearly detected”.

For the molecule “GKVLKKAALSL [control peptide, SPDIA with arginine residues replaced by alanine, reference compound]”, the “interaction with phosphoinositides on membrane lipid strip” value in test [2] is “fails to bind with PIP and PIP2”.

As to “YGRKKRRQRRRLAKARLAL [TAT-Control peptide, control peptide for TAT-IL-1α peptide, reference compound]”, in test [3], the “IL-1α protein level in whole cell lysate” value is reported as “slightly decreased”.

In the case of YGRKKRRQRRRLKKRRLSL [TAT-IL-1α peptide], in test [4], the HK-2 mitochondrial dissociation entry was “increased”. Further, the HK-2 mitochondrial translocation entry in test [4] is “diminished”. The “IL-1α protein level in whole cell lysate” value is given as “diminished” in test [3] and “decreased” in test [3] (listed as TAT-IL-1α). In addition, the “Akt1 activation (pAkt1)” value in test [5] is reported as “diminished”; in test [5] (listed as TAT-IL-1α) it was “significantly inhibited”. Further, the entries for the “melanoma (lung) metastasis” value in test [6] and in test [6] (listed as TAT-IL-1α) were “reduced” and “significantly reduced”, respectively. In addition, the “melanin content of the metastatic lungs” value in test [6] (setting [7]) was “diminished”. The “tumor number (metastatic lungs)” value in test [6] (setting [7]) is recorded as “diminished”.

B1: proIL-1α: recombinant human proIL-1α incubated with membrane lipid strip (protein, UniProt P01583 1-271, looked up)
pro-form: MAKVPDMFEDLKNCYSENEEDSSSIDHLSLNQKSFYHVSYGPLHEGCMDQSVSLSISETSKTSKLTFKESMVVVATNGKVLKKRRLSLSQSITDDDLEAIANDSEEEIIKPRSAPFSFLSNVKYNFMRIIKYEFILNDALNQSIIRANDQYLTAAALHNLDEAVKFDMGAYKSSKDDAKITVILRISKTQLYVTAQDEDQPVLLKEMPEIPKTITGSETNLLFFWETHGTKNYFTSVAHPNLFIATKQDYWVCLAGGPPSITDFQILENQA
modifications: pro-form
notes: recombinant human proIL-1α incubated with membrane lipid strip
On to B1, for which the “interaction with phosphoinositides on membrane lipid strip” value in test [2] was “interaction with phosphoinositides such as PI(4)P (PIP), PI(4,5)P2 (PIP2) and PI(3,4,5)P3 (PIP3)”.
